Patent US7332482B2, “Method for treating benign prostatic hyperplasia” (BioXell S.p.A., priority 2003, dated 2008)
“Also recorded” adds a separate entry of the source.

How the values were obtained:
BPH cells = assay: BPH cell proliferation assay; type: cell-based, human; conditions: 48 h
Experimental: Human BPH cells, prepared, maintained and used as previously described in Crescioli C, et al. Journal of Clinical and Endocrinology Metabolism (2000) 85 p 2576-2583, were obtained from prostate tissues derived from 5 patients, who underwent suprapubic adenomectomy for BPH, after informed consent and approval by the Local Ethical Committee.
For all cell proliferation assay, 4×10^4 BPH cells were seeded onto 12-well plates in their growth medium, starved in red- and serum-free medium containing 0.1% BSA for 24 h, and then treated with specific stimuli for 48 h. Cells in phenol red- and serum-free medium containing 0.1% BSA were used as controls. Thereafter, cells were trypsinized, and each experimental point was derived from hemocytometer counting, averaging at least six different fields for each well, as previously reported (see Crescioli C, et al. Journal of Clinical and Endocrinology Metabolism (2000) 85 p 2576-2583). […] Growth assays were also carried out using a fixed concentration of androgens (10 nM) with or without Compound A (1 nM, 10 nM) or the anti-androgens finasteride (F, 1 nM) and cyproterone acetate (Cyp, 100 nM). Growth assays were also performed using a fixed concentration of T (10 nM) or GFs (10 ng/ml) with or without Compound A (10 nM). In the same experiment, each experimental point was repeated in triplicate or quadruplicate and experiments were performed 3 times. Results are expressed as % variation (mean±SEM) over the maximal T or GF-induced stimulation.

5α reductase type 2 = biological target: T1, 5α reductase type 2 (Homo sapiens, UniProt P31213); assay: 5α reductase inhibition test in CHO 1829 cells; type: cell-based; conditions: 10^−9 to 10^−5 M
T1 construct: host or cells: CHO 1829
T1 sequence (P31213 1-254): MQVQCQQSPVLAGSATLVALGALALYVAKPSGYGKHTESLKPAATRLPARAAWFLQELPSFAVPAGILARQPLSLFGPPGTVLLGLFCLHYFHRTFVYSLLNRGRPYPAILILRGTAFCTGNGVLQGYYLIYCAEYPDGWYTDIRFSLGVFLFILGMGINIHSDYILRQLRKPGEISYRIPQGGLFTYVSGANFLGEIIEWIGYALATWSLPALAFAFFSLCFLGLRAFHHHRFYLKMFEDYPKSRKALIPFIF
Experimental: CHO-1827 and CHO-1829 cells, transfected with 5α reductase type 1 (5αR-1) or type 2 (5αR-2), respectively (see Steers W. Urology (2001) 58 p 17-24), were maintained in Ham's F12 medium supplemented with 5% FCS.
5α reductase inhibition assay was performed using CHO 1827 cells, transfected with 5αR-1, or CHO 1829 cells, transfected with 5αR-2, as described (see Guarna A, et al. Journal of Medicinal Chemistry (2000) 43 3718-3735.). Compound A was added in a concentration range from 10^−9 to 10^−5 M, using finasteride as a control inhibitor in each experiment.

[1] = test system: prostate volume in patients with BPH; assay: Randomised double blind placebo controlled study in patients with BPH; type: in vivo, human
Experimental: A randomised double blind placebo controlled parallel group study was performed to determine the effect of Compound A (1-alpha-fluoro-25-hydroxy-16,23E-diene-26,27-bishomo-20-epi-cholecalciferol) in patients with BPH.
The principal inclusion criterion was that male patients be diagnosed with BPH and have prostate volume >40 ml as determined by transrectal ultrasound (TRUS).
Statistical methods: primary efficacy analyses were planned on Per-Protocol (PP) Population and, as support, the same analyses were to be done on Intent-to-treat population. Patients evaluatable for the Per-Protocol analysis were all randomized patients compliant to protocol criteria who completed the whole course of study without major protocol violations and have valid assessments of prostate volume. Patients valid for intent-to-treat (ITT) population were all randomized patients who received at least one dose of trial medication and for whom the prostate volume at baseline and at 12 weeks visit were available.
All patients randomized who took at least one dose of study drug were evaluated for safety analysis.
The primary efficacy variable was the percentage change of prostate volume, measured by centralized MRI axial scanning. An ANOVA model was used for the analysis, with treatment and center as fixed effects.
Study participants received 150 μg capsule (as per Example 4A with drug omitted in the case of placebo) once daily in the morning. The treatment period was 12 weeks.

## C=C1/C(=C\C=C2/CCC[C@]3(C)C([C@@H](C)C/C=C/C(O)(CC)CC)=CC[C@@H]23)C[C@@H](O)C[C@@H]1F [Compound A, 1-alpha-fluoro-25-hydroxy-16,23E-diene-26,27-bishomo-20-epi-cholecalciferol]
BPH cells; Compound A 1 nM
  effect on growth of androgen-unstimulated BPH cells: reduced growth
BPH cells; DHT 10 nM, Compound A 1 nM, F 1 nM, Cyp 100 nM
  effect on DHT-stimulated BPH cell proliferation: antagonized; also recorded: significantly blocked
BPH cells; T 10 nM, Compound A 1 nM, F 1 nM, Cyp 100 nM
  effect on T-stimulated BPH cell proliferation: antagonized; also recorded: significantly blocked
BPH cells; T 10 nM, KGF or Des(1-3)IGF-I 10 ng/ml
  Imax, inhibition of T- or GF-stimulated BPH cell growth: 66.6±7.3%
BPH cells; unstimulated BPH cells, Imax shared by both secosteroids
  maximal inhibition (Imax) of BPH cell growth: 43±1%
5α reductase type 2
  interference with 5α reductase type 2: did not interfere with either isoenzyme up to the micromolar range
[1]; 12 weeks
  severe adverse events: no severe adverse event was reported
[1]; ITT population
  proportion of responders: 28.8%
[1]; ITT population, axial scanning
  reduction of prostate volume vs placebo: more effective than placebo
[1]; PP population
  mean difference of prostate volume vs baseline in non responder patients: 3.93±0.8
  mean difference of prostate volume vs baseline in unchanged patients: −0.35±2.3
  mean reduction of prostate volume vs baseline in responder patients: −6.88±2.5
  percentage change of prostate volume, paraxial acquisition: −1.30±6.9%
  percentage change of prostate volume, transitional scanning: −0.22±9.6%
  proportion of patients not responder: 7.5%
  proportion of responders: 27.5%
  proportion of unchanged patients: 65%
[1]; PP population, 150 μg once daily, 12 weeks, MRI
  percentage change in prostate volume, axial scanning: −1.89±5.2%
[1]; PP population, axial scanning, 95% confidence limit −9.54 and −4.94
  estimate of difference between treatments (Compound A minus placebo), percentage change in prostate volume: −7.24
[1]; safety population
  number of patients with adverse events related to treatment: 3
  patients with adverse events related to treatment: 5.26%
[1]; safety population, 57 randomised
  number of patients with at least one adverse event: 17
[1]; vs Placebo group
  calciuria values over the course of the study: did not differ significantly
